Publication PMC10778626, “Efficacy of Novel Quaternary Ammonium and Phosphonium Salts Differing in Cation Type and Alkyl Chain Length against Antibiotic-Resistant Staphylococcus aureus” (International Journal of Molecular Sciences, 2023)
Like-named read-outs stand apart in the source and are kept apart here.

Legend:
[1] = Chromatographic hydrophobicity index (CHI) by UHPLC; format: physicochemical; settings: for CHI: LC/UV at pH 2.6, calculated from retention time with the calibration line; for chromatographic logP: back-calculated from CHI at pH 2.6: CHI LogP = 0.047 × CHI + 0.36 × HBC − 1.10
Protocol: The chromatographic hydrophobicity index (CHI) values were determined using the retention times (tR) of the samples under study and of a mixture of standard compounds on a UHPLC NEXERA SERIES LC-40 with a Luna C18 (2) column of 150 × 4.6 mm, 5 μm (Phenomenex, Torrance, CA, USA). Stock solutions of the test compounds (10 mM) were prepared in dimethyl sulfoxide (DMSO, 99.9%; Carlo Erba) and diluted in acetonitrile/water (1:1) to obtain a final concentration of 500 μM. The mobile phase A was 1.0% (v/v) aqueous acetic acid solution (pH = 2.6), and the mobile phase B was acetonitrile. The following gradient programme was applied: 1–7 min 0–100% B, 7–17 min 100% B, 17–19 min 100–0% B, 1 mL/min flow; rt, injection volume 40 μL.
A calibration line was obtained using a mixture of the following compounds: benzimidazole, theophylline, paracetamol, caffeine, colchicine, carbamazepine, indole, propiophenone, butyrophenone, valerophenone, and heptanophenone (Table S1 and Figure S50, Supplementary Materials). The experimental CHI values of the compounds tested at pH 2.6 were then converted to the logarithm of octanol/water partition coefficient (CHI LogP) values using Equation (1). CHI LogP = 0.047 × CHI + 0.36 × HBC − 1.10 (1) where HBC is the hydrogen bond donor count.

S. aureus CECT 976 = assay: MIC/MBC by broth microdilution, S. aureus CECT 976; format: cell-based; settings: Staphylococcus aureus
Protocol: The minimum inhibitory concentration (MIC) and minimum bactericidal concentration (MBC) values of all QHSs were determined by the broth microdilution method, according to the approved M7-A7 (aerobes) standards of the Clinical and Laboratory Standards Institute (CLSI) guidelines. Overnight cell cultures of S. aureus, in the exponential phase of growth, were adjusted to an optical density (OD) of 0.132 ± 0.02 (λ = 600 nm). Then, a volume of 180 µL of the cell suspension was added to sterile, flat, clear-bottomed polystyrene (PS) 96-well microtiter plates (VWR—Radnor, PA, USA), already containing 20 µL of each QHS under study at concentrations ranging from 0.0625 to 64 µg/mL. In the end, the volume of each compound never exceeded 10% (v/v) of the well volume. Microtiter plates were then incubated for 24 h at 37 °C under agitation (150 rpm; INCU-Line IL 150R incubator). Absorbance measurements were performed at the beginning (t = 0 h) and end (t = 24 h) of the incubation period using a microtiter plate absorbance reader (BMG LABTECH FLUOstar Omega). Bacterial suspensions with DMSO and without QHSs were used as negative controls. […] All tests were performed with six replicates and a minimum of three independent repeats.
Plates were incubated at 37 °C for 24 h, and growth was visually inspected. […] All tests were performed in triplicate, and with a minimum of three independent repeats.

[2] = CECT976, S. aureus CECT 976, broth microdilution, 24 h, 37 °C, read-out: MIC
[3] = CECT976, S. aureus CECT 976, broth microdilution, plated on PCA, read-out: MBC

SMILES	CHI [1]	chromatographic logP [1]	MIC (S. aureus CECT 976; [2]) [µg/mL]	MBC (S. aureus CECT 976; [3]) [µg/mL]	MBC (S. aureus CECT 976; CECT976) [µg/mL]	MIC (S. aureus CECT 976; CECT976, 24 h) [µg/mL]
CCCCCC[n+]1ccc2ccccc2c1.[Br-] [Compound 3a, 2-Hexylisoquinolin-2-ium bromide]	37.81	0.677	> 64	> 64		
CCCCCCCCCCCCCCCC[n+]1ccc2ccccc2c1.[Br-] [Compound 3f, 2-Hexadecylisoquinolin-2-ium bromide]	100.8	3.64	4	8		
CCCCCCCCCCCCCCCC[n+]1ccccc1.[Br-] [Compound 6f, 1-Hexadecylpyridin-1-ium bromide]	94.47	3.34			8	
CCCCCCCCCCCCCCCCCC[n+]1ccc2ccccc2c1 [Compound 3g]	113.1	4.21	8	16		
CCCCCCCCCC[P+](c1ccccc1)(c1ccccc1)c1ccccc1 [Compound 1c, Decyltriphenylphosphonium bromide]	82.58	2.78	1	8		
CCCCCCCC[P+](c1ccccc1)(c1ccccc1)c1ccccc1 [Compound 1b, Octyltriphenylphosphonium bromide]	71.06	2.24	2	16		
CCCCCCCCCCCCCCCCCC[n+]1ccn(C)c1.[Br-] [Compound 2g, 1-Methyl-3-octadecyl-1H-imidazol-3-ium bromide]	109.2	4.03	8	16		
CCCCCCCCCC[n+]1ccc2ccccc2c1.[Br-] [Compound 3c, 2-Decylisoquinolin-2-ium bromide]	61.62	1.8	16	64		
CCCCCCCCCCCC[n+]1ccn(C)c1.[Br-] [Compound 2d, 3-Dodecyl-1-methyl-1H-imidazol-3-ium bromide]	67.25		1	16		
CCCCCCCC[n+]1ccc2ccccc2c1.[Br-] [Compound 3b, 2-Octylisoquinolin-2-ium bromide]	50.02	1.25			> 64	64
CCCCCCCCCCCCCCCC[n+]1cccc2ccccc21.[Br-] [Compound 5f, 1-Hexadecylquinolin-1-ium bromide]	101.1	3.65	4	8		
CCCCCCCCCCCCCCCC[P+](c1ccccc1)(c1ccccc1)c1ccccc1 [Compound 1f, Hexadecyltriphenylphosphonium bromide]	115.5	4.33	2	16		
CCCCCCCCCC[n+]1ccn(C)c1.[Br-] [Compound 2c, 3-Decyl-1-methyl-1H-imidazol-3-ium bromide]	54.51	1.46	16	> 64		
CCCCCC[n+]1ccn(C)c1.[Br-] [Compound 2a, 3-Hexyl-1-methyl-1H-imidazol-3-ium bromide]	29.35	0.279			> 64	> 64
CCCCCCCCCCCCCCCCCC[P+](c1ccccc1)(c1ccccc1)c1ccccc1 [Compound 1g, Octadecyltriphenylphosphonium bromide]	128.2	4.93	4	64		
CCCCCCCCCCCC[n+]1ccc2ccccc2c1.[Br-] [Compound 3d, 2-Dodecylisoquinolin-2-ium bromide]	74.48	2.4	2	16		

Now from value to molecule, other results behind:

CHI [1]	chromatographic logP [1]	MIC (S. aureus CECT 976; [2]) [µg/mL]	SMILES	MBC (S. aureus CECT 976; [3]) [µg/mL]	MBC (S. aureus CECT 976; CECT976) [µg/mL]	MIC (S. aureus CECT 976; CECT976, 24 h) [µg/mL]
108.1	3.98	8	CCCCCCCCCCCCCCCCCC[n+]1ccccc1.[Br-] [Compound 6g, 1-Octadecylpyridin-1-ium bromide]	16		
40.78	0.817	> 64	CCCCCCCC[n+]1ccccc1.[Br-] [Compound 6b, 1-Octylpyridin-1-ium bromide]	> 64		
109.2	4.03	8	CCCCCCCCCCCCCCCCCC[n+]1ccc(C)cc1.[Br-] [Compound 4g, 4-Methyl-1-octadecylpyridin-1-ium bromide]	16		
		> 64	CCCCCC[N+](CC)(CC)CC.[Br-] [Compound 7a, N,N,N-Triethylhexan-1-aminium bromide]	> 64		
		64	CCCCCCCCCCCCCCCC[N+](CC)(CC)CC.[Br-] [Compound 7f, N,N,N-Triethylhexadecan-1-aminium bromide]	64		
55.99	1.53	32	CCCCCCCCCC[n+]1ccc(C)cc1.[Br-] [Compound 4c, 1-Decyl-4-methylpyridin-1-ium bromide]	> 64		
74.21	2.39	4	CCCCCCCCCCCC[n+]1cccc2ccccc21.[Br-] [Compound 5d, 1-Dodecylquinolin-1-ium bromide]	16		
49.24	1.21	16	CCCCCCCC[n+]1cccc2ccccc21.[Br-] [Compound 5b, 1-Octylquinolin-1-ium bromide]	> 64		
		4	CCCCCCCCCCCC[N+](CC)(CC)CC.[Br-] [Compound 7d, N,N,N-Triethyldodecan-1-aminium bromide]	16		
		> 64	CCCCCCCC[N+](CC)(CC)CC.[Br-] [Compound 7b, N,N,N-Triethyloctan-1-aminium bromide]	> 64		
65.58		2	CCCCCCCCCCCC[n+]1ccccc1.[Br-] [Compound 6d, 1-Dodecylpyridin-1-ium bromide]	8		
		64	CCCCCCCCCC[N+](CC)(CC)CC.[Br-] [Compound 7c, N,N,N-Triethyldecan-1-aminium bromide]	> 64		
61.45	1.79	16	CCCCCCCCCC[n+]1cccc2ccccc21.[Br-] [Compound 5c, 1-Decylquinolin-1-ium bromide]	32		
27.07	0.172	> 64	CCCCCC[n+]1ccccc1.[Br-] [Compound 6a, 1-Hexylpyridin-1-ium bromide]	> 64		
68.96	2.14	2	CCCCCCCCCCCC[n+]1ccc(C)cc1.[Br-] [Compound 4d, 1-Dodecyl-4-methylpyridin-1-ium bromide]	16		
36.98	0.638	> 64	CCCCCC[n+]1cccc2ccccc21.[Br-] [Compound 5a, 1-Hexylquinolin-1-ium bromide]	> 64		
96.77	3.45	4	CCCCCCCCCCCCCCCC[n+]1ccc(C)cc1.[Br-] [Compound 4f, 1-Hexadecyl-4-methylpyridin-1-ium bromide]	8		
53.07	1.4	32	CCCCCCCCCC[n+]1ccccc1.[Br-] [Compound 6c, 1-Decylpyridin-1-ium bromide]	> 64		
		16	CCCCCCCCCCCCCCCCCC[N+](CC)(CC)CC.[Br-] [Compound 7g, N,N,N-Triethyloctadecan-1-aminium bromide]	16		
31.08	0.361	> 64	CCCCCC[n+]1ccc(C)cc1.[Br-] [Compound 4a, 1-Hexyl-4-methylpyridin-1-ium bromide]	> 64		
